Measurements: PMC10301570 (Molecules, 2023)
Like-named read-outs stand apart in the source and are kept apart here.

Columns and labels:
[1] = In-vivo pharmacokinetic study in rats after oral administration of EECQ extract; conditions: serum, oral 400 mg/Kg EECQ, mean ± SD, n = 6; for AUC(0-inf): male, SD, po; for AUC(0-inf) / AUC(0-t) / Cmax / Tmax / half-life: rat
Method: Liquid-liquid extraction was employed for processing samples of quercetin and t-res in rat serum. CS/QC samples were prepared using 10 μL of sample and 90 μL of control serum or 100 μL serum (in vivo) samples were treated with 100 μL of 1 mg/mL β-glucuronidase enzyme in 100 mM ammonium acetate buffer (pH 5) and incubated for 2 h at 37 °C. The reaction mixtures were precipitated with 200 μL of 0.1% FA in methanol-containing IS (FFA). Samples were vortexed for 5 min at 2000 rpm, and then ethyl acetate was added, the sample was vortexed and centrifuged at 10,000 rpm for 10 min. The organic layer was then collected and dried at 37 °C using a TurboVap and nitrogen stream. The dried residues were reconstituted with mobile phase and injected into LC-MS/MS for analysis.
The pharmacokinetic study of quercetin and t-res was performed by an oral administration of EECQ extract (400 mg/kg) in male SD rats (n = 6). The EECQ oral dose was selected based on our previous publication. […] Blood samples were collected from the retro-orbital plexus of rats at predetermined time points 0.25, 0.5, 1, 2, 4, 8, 12, 24, and 48 h after oral administration. Serum was obtained by centrifuging the blood and samples were stored at −80 °C until analysis. Serum samples were processed using the LLE extraction mentioned in Section 4.6 and analyzed using the validated LC-MS/MS method. The non-compartment model was used to calculate the pharmacokinetic (PK) parameters for quercetin and t-res using WinNonlin 6.3 software (Pharsight Corporation, Saint Louis, MO, USA). The PK parameters were estimated, including Cmax, maximum plasma concentration; t1/2, half-life; Tmax, time to reach Cmax; CL/F, clearance and Vd/F, apparent volume of distribution. AUC0–t (area under the concentration curve from zero time point to the last time point) was determined with the trapezoidal rule up to the last measured plasma concentration, Clast. AUC0–∞ (AUC curve from zero time point to infinity) was determined by adding AUC0–t and Clast/Ke.

[2] = Stability in simulated gastric fluid (SGF, pH 1.2); type: in vitro ADME; conditions: 100 μg/mL, SGF pH 1.2, 37 °C, 0–60 min
Method: (§1) The stability of quercetin and t-res was tested at 100 μg/mL in simulated gastric (SGF, pH 1.2) and intestinal (SIF, pH 6.8) fluids (n = 3). The manufacturer’s protocol was followed to prepare biorelevant media with enzymes. Quercetin and t-res were exposed to SGF and SIF buffers with and without enzymes and incubated in a shaking water bath at 37 °C. 100 μL samples were collected at specific intervals (0–60 min for SGF and 0–180 min for SIF). At a concentration of 100 µg/mL samples were extracted using ACN containing I.S (1:2, v/v), vortexed for 5 min, and then centrifuged at 10,000 rpm for 5 min [52]. The supernatant of the samples was utilized for LC-MS/MS analysis. The % remaining of quercetin and t-res was calculated to determine the stability using Equation (1). (1) % Drug remaining=Concentration of drug at time t/Concentration of drug at time 0×100

[3] = Stability in simulated intestinal fluid (SIF, pH 6.8); type: in vitro ADME; conditions: 100 μg/mL, SIF pH 6.8, 37 °C, 0–180 min
Method: as §1

Plasma stability = type: in vitro ADME; conditions: rat, 37 °C
Method: The preincubation of rat plasma was done for 5 min at 37 °C. After pre-incubation, quercetin and t-res were added to plasma at a concentration of 100 µg/mL, and reaction tubes were incubated for 3 h in a shaking water bath at 37 °C. Aliquots were collected at predetermined timepoints of 0, 5, 15, 30, 45, 60, 90, 120, and 180 min. Plasma samples were processed immediately using the extraction method mentioned in Section 4.6. The % remaining of the drug at various time intervals relative to the initial time point (time 0) was used to calculate the plasma stability.

[4] = Stability in rat serum under storage conditions (autosampler, benchtop, long-term, freeze-thaw); type: in vitro ADME; conditions: for Autosampler stability, accuracy / Autosampler stability, measured conc. / Benchtop stability, accuracy / Benchtop stability, measured conc. / Freeze-thaw stability, accuracy / Freeze-thaw stability, measured conc. / Long-term stability, accuracy / Long-term stability, measured conc.: rat serum, n = 6; for Autosampler stability, accuracy / Autosampler stability, measured conc.: 4 ± 2 °C, 24 h; for Benchtop stability, accuracy / Benchtop stability, measured conc.: 24 ± 4 °C, 8 h; for Freeze-thaw stability, accuracy / Freeze-thaw stability, measured conc. / Long-term stability, accuracy / Long-term stability, measured conc.: −70 ± 10 °C; for Freeze-thaw stability, accuracy / Freeze-thaw stability, measured conc.: 3 cycles; for Long-term stability, accuracy / Long-term stability, measured conc.: 30 days
Method: Stability studies were performed using three different QC levels including LQC, MQC, and HQC with six replicates. The extracted serum samples were analyzed using different storage conditions including autosampler (4 ± 2 °C for 24 h), bench top stability (24 ± 4 °C for 8 h), and long-term stability (−70 ± 10 °C for 30 days). Freeze-thaw stability was evaluated after subjecting the samples to three cycles of freezing (−70 ± 10 °C for 12 h) and thawing. Stability samples were quantified against fresh calibration and QC samples. The accuracy and precision of stability samples should meet the acceptance criterion of ±15%.

[5] = set-up: method as in Dinesh Kumar V et al. (2014) [48]; conditions: rat plasma, oral, 25 mg/kg, ref Dinesh Kumar V et al. (2014) [48], cited from earlier work
[6] = Metabolic stability in rat liver microsomes (RLM); conditions: RLM 0.5 mg/mL, 100 µg/mL, 1 mM NADPH, up to 60 min
Method: (§2) The 0.8 mL reaction mixture was prepared using RLM at 0.5 mg/mL, 40 mM MgCl2, in 50 mM Tris-HCl buffer (pH 7.4). 100 µg/mL of quercetin and t-res was added to the reaction mixture and preincubated in a shaking water bath at 37 °C and 1 mM NADPH was added to the reaction milieu to initiate the reactions. Samples were collected at predetermined time points up to 60 min and processed for LC-MS/MS analysis [54].

[7] = rat, microsomes, 1 h
Method: as §2

[8] = set-up: method as in Meng-xiang Su et al. (2011) [47]; conditions: rat plasma, oral, 0.6 mg/kg; ref Meng-xiang Su et al. (2011) [47]; cited from earlier work
[9] = nominal conc. 203 ng/mL (204 for trans-resveratrol)

AUC(0-inf) ([1]; 400 mg/kg) [ng·h/mL] | AUC(0-t) ([1]; male SD rats) [ng·h/mL] | Cmax ([1]; male SD rats) [ng/mL] | Tmax ([1]; male SD rats) [h] | half-life ([1]; male SD rats) [h] | remaining at 3 h, 100 µg/mL (Plasma stability) [%] | Autosampler stability, accuracy ([4]; nominal conc. 30 ng/mL) [%] | Autosampler stability, measured conc. ([4]; nominal conc. 30 ng/mL) [ng/mL] | Autosampler stability, accuracy [4, 9] [%] | Autosampler stability, measured conc. [4, 9] [ng/mL] | Autosampler stability, accuracy ([4]; nominal conc. 375 ng/mL) [%] | Autosampler stability, measured conc. ([4]; nominal conc. 375 ng/mL) [ng/mL] | Benchtop stability, accuracy ([4]; nominal conc. 30 ng/mL) [%] | Benchtop stability, measured conc. ([4]; nominal conc. 30 ng/mL) [ng/mL] | Benchtop stability, accuracy [4, 9] [%] | Benchtop stability, measured conc. [4, 9] [ng/mL] | Benchtop stability, accuracy ([4]; nominal conc. 375 ng/mL) [%] | Benchtop stability, measured conc. ([4]; nominal conc. 375 ng/mL) [ng/mL] | Freeze-thaw stability, accuracy ([4]; nominal conc. 30 ng/mL) [%] | Freeze-thaw stability, accuracy [4, 9] [%] | Compound | also measured
471 ± 51.5 | 447 ± 47 | 57.6 ± 14.3 | 1.17 ± 0.41 | 4.91 ± 0.69 | 83.4 | 92.56 | 27.77 ± 1.50 | 89.32 | 181.31 ± 8.65 | 99.44 | 372.92 ± 2.21 | 90.29 | 27.09 ± 1.67 | 90.96 | 184.64 ± 7.16 | 98.96 | 371.12 ± 2.43 | 98.12 | 93.68 | O=c1c(O)c(-c2ccc(O)c(O)c2)oc2cc(O)cc(O)c12 [Quercetin] | AUC0–∞ ([1]; male SD rats, 400 mg/kg): 474.23 ± 51.49 ng·h/mL; Stability in SGF [2]: Moderate instability; Stability in SIF [3]: stable; Stability in rat serum at variable storage conditions ([4]; autosampler, benchtop, freeze-thaw, long-term): stable; Freeze-thaw stability, measured conc. ([4]; nominal conc. 30 ng/mL): 29.44 ± 2.73 ng/mL; Freeze-thaw stability, measured conc. [4, 9]: 190.17 ± 8.97 ng/mL; Freeze-thaw stability, accuracy ([4]; nominal conc. 375 ng/mL): 98.63%; Freeze-thaw stability, measured conc. ([4]; nominal conc. 375 ng/mL): 369.86 ± 4.43 ng/mL; Long-term stability, accuracy ([4]; nominal conc. 30 ng/mL): 100.22%; Long-term stability, measured conc. ([4]; nominal conc. 30 ng/mL): 30.07 ± 2.06 ng/mL; Long-term stability, accuracy [4, 9]: 98.38%; Long-term stability, measured conc. [4, 9]: 199.71 ± 8.70 ng/mL; Long-term stability, accuracy ([4]; nominal conc. 375 ng/mL): 99.48%; Long-term stability, measured conc. ([4]; nominal conc. 375 ng/mL): 373.05 ± 10.65 ng/mL; AUC(0–t) [5]: 3283.75 ng·h/mL; Tmax [5]: 4.00; plasma half-life [5]: 4.96 h; Cmax ([5]; in ng/mL): 369.20; % remaining in RLM [6]: 53.78
157 ± 21.1 | 145 ± 20.8 | 56.4 ± 13.1 | 0.58 ± 0.2 | 1.51 ± 0.4 | 84.4 | 94.53 | 28.36 ± 2.19 | 93.73 | 190.28 ± 13.20 | 99.51 | 373.15 ± 5.84 | 95.08 | 28.52 ± 3.05 | 93.36 | 189.53 ± 8.81 | 98.17 | 368.13 ± 12.29 | 91.32 | 93.32 | Oc1ccc(/C=C/c2cc(O)cc(O)c2)cc1 [trans-Resveratrol, trans-resveratrol] | Freeze-thaw stability, measured conc. [4, 9]: 189.43 ± 17.82 ng/mL; Freeze-thaw stability, accuracy ([4]; nominal conc. 375 ng/mL): 98.11%; Freeze-thaw stability, measured conc. ([4]; nominal conc. 375 ng/mL): 367.92 ± 11.94 ng/mL; Long-term stability, accuracy ([4]; nominal conc. 30 ng/mL): 101.68%; Long-term stability, measured conc. ([4]; nominal conc. 30 ng/mL): 30.50 ± 2.53 ng/mL; Long-term stability, accuracy [4, 9]: 93.14%; Long-term stability, measured conc. [4, 9]: 189.08 ± 14.18 ng/mL; Long-term stability, accuracy ([4]; nominal conc. 375 ng/mL): 97.67%; Long-term stability, measured conc. ([4]; nominal conc. 375 ng/mL): 366.25 ± 11.38 ng/mL; Phase I metabolism in RLM [7]: no phase I metabolism was observed; Phase I metabolism in RLM ([7]; 100 µg/mL, pH 7.4): no phase-1 metabolism observed; AUC(0–t) [8]: 2835 ± 1655 ng·min/mL; Cmax [8]: 23 ± 8 ng/mL; half-life [8]: 0.6 ± 0.1 h
